The text below walks through data of article PMC6677754, “In silico design and optimization of selective membranolytic anticancer peptides” (Scientific Reports, 2019).

Each structure is given as a SMILES string. Peptide text beside a SMILES is read from it.

The subject of the experiment is single MCF7 cells. The experiment can be described thus: Microfluidics chip single-cell experiment. In kind it is cell-based, human. As to conditions: single MCF7 cell in microfluidic chip, peptide 50 µM. The method, then:
The AmphiArc2 peptide, the shortest peptide of the low micromolar active peptides, has a high hydrophobic moment (µH = 0.87) and a 180° arc of hydrophobic residues in an idealized helical structure (Fig. 1a). As determined by circular dichroism (CD) spectroscopy, the AmphiArc2 peptide is unstructured in pure water but adopts an alpha-helical structure in a hydrophobic environment (in 50% v/v water:2,2-trifluoroethanol, TFE) (Fig. 1b). […] To further investigate its membranolytic action, we observed the activity of AmphiArc2 on single MCF7 cells entrapped in a microfluidic chip.
The resultant sigmoidal curves were analyzed with the drc22 R package using a log-logistic model with 3 fixed parameters to obtain the HC50 values.
Microfluidics chip experiments
Single cell ACP action was observed on MCF7 cells entrapped in a microfluidic chip following the previously described methodology23. For visualization, cells were stained with calcein-AM at a 1 µM concentration. The calcein-AM penetrates into the cytosol of the cells and it is converted there by intracellular esterases to a fluorescent form that remains encapsulated in the cytosol. […]
in a microfuidic chip chamber after exposure to the AmphiArc2 peptide at a concentration of 50 µM. […] The loss of the cytosolic fluorescence corresponds to a permeabilization of the cell membrane. […]

On to `CC[C@H](C)[C@H](NC(=O)[C@H](CCCNC(=N)N)NC(=O)[C@H](Cc1c[nH]c2ccccc12)NC(=O)[C@@H](NC(=O)[C@H](CCCCN)NC(=O)[C@H](CCCCN)NC(=O)[C@@H](NC(=O)[C@@H](NC(=O)[C@@H](NC(=O)[C@H](CCCCN)NC(=O)[C@H](Cc1ccccc1)NC(=O)[C@H](CCCCN)NC(=O)[C@H](CCCCN)NC(=O)[C@H](Cc1ccccc1)NC(=O)[C@@H](NC(=O)[C@@H](N)CCCCN)[C@@H](C)CC)[C@@H](C)O)[C@@H](C)CC)[C@@H](C)CC)C(C)C)C(=O)N[C@@H](Cc1ccccc1)C(=O)NCC(=O)N[C@@H](CCCNC(=N)N)C(=O)N[C@@H](Cc1ccccc1)C(N)=O` [AmphiArc2] (H-KIFKKFKTIIKKVWRIFGRF-NH2), for which the “morphological changes in the cell membrane and leakage of the cytosolic components, time after initial contact with the peptide” value (calcein-AM and anti-EpCAM stained, as early as) was 30 seconds. Moreover, the “time after which the encapsulated dye had leaked out, membrane deformations and blebbing” value (calcein-AM stained) was 95 s.
